Assay results published in ChEMBL document CHEMBL1201862, “PubChem BioAssay data set” (2004).
Active and inactive are the calls of the source.

Key:
[1] = Dd2 malaria parasite growth inhibition potency – SYBR Green, dry powder samples, dose response (AID 1159566); type: functional, cell-based;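 also: potency for growth inhibition with lower SYBR green DNA signal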
[2] = antimalarial activity against Dd2 parasites – SYBR Green fluorescence, erythrocytes, dry powder, set 2, dose response (AID 1159574); type: functional, cell-based
[3] = P. falciparum Dd2 growth inhibitors, dose response, SYBR Green, cherry-picked samples (AID 1159567); type: functional, cell-based
[4] = growth inhibition of yeast DHODH-expressing 3D7 parasites – SYBR Green, dry powder samples, dose response (AID 1159570); type: functional, cell-based;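 also: parasite growth measured after 72 hours of compound exposure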
[5] = growth inhibition of PfATP4-mutant resistant parasites – NITD609-resistant line, SYBR Green, dry powder, dose response (AID 1159571); type: functional, cell-based;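 also: parasites synchronized at ring stage by sorbitol before testing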
[6] = target: Mitogen-activated protein kinase 10 (Homo sapiens, UniProt P53779); test: Dose response biochemical screening assay for inhibitors of c-Jun N-Terminal Kinase 3 (JNK3). [Related pubchem assays: 746 ]
[7] = Luminescence Cell-Based Dose Response HTS to Identify Activators of Luciferase Translation or Activity in H4 […] Cells. [Related pubchem assays: 1829 (Project Summary), 1814 (Primary HTS)]; type: functional
[8] = Luminescence Cell-Based Dose Response to Identify Activators of 5'UTR Stem-Loop Driven Prion Protein mRNA Translation in H4-C Neuroglioblastoma Cells. [Related pubchem assays: 1829 (Project Summary), 1814 (Primary HTS)]; type: functional
[9] = Luminescence Cell-Based Dose Confirmation HTS to Identify Activators of 5'UTR Stem-Loop Driven Alpha-Synuclein mRNA Translation in H4 Neuroglioblastoma Cells. [Related pubchem assays: 1829 (Project Summary), 1814 (Primary HTS)]; type: functional
[10] = system: H4; test: Luminescence Cell-Based Dose Response HTS to Identify Activators of 5'UTR Stem-Loop Driven Prion Protein mRNA Translation in H4 Neuroglioblastoma Cells. [Related pubchem assays: 1829 (Project Summary), 1814 (Primary HTS)]; type: functional; details: Homo sapiens
[11] = Luminescence Cell-Based Dose Response to Identify Activators of Luciferase Translation or Activity in H4-C Neuroglioblastoma Cells. [Related pubchem assays: 1829 (Project Summary), 1814 (Primary HTS)]; type: functional
[12] = Luminescence Cell-Based Dose Confirmation to Identify Activators of 5'UTR Stem-Loop Driven Alpha-Synuclein mRNA Translation in H4 Neuroglioblastoma Cells. [Related pubchem assays: 1829 (Project Summary), 1814 (Primary HTS)]; type: functional
[13] = target: Estrogen receptor beta (Homo sapiens, UniProt Q92731); test: blockers of SRC-3 recruitment to ERβ – biochemical, ELISA, streptavidin-HRP readout, orthogonal assay, confirmation (AID 1060)
[14] = target: T1, SUMO-activating enzyme (Homo sapiens, UniProt Q9UBT2); test: blockers of UBC9-mediated SUMO conjugation – biochemical, AlphaScreen, SUMOylation inhibitor project, confirmation (AID 2018); type: functional
[15] = target: T2, Tyrosine-protein phosphatase non-receptor type 7 (Homo sapiens, UniProt P35236); test: redox-active compounds inhibiting HePTP phosphatase – biochemical, fluorescence, mechanism study (AID 2068); type: functional
T2 sequence (P35236 whole entry): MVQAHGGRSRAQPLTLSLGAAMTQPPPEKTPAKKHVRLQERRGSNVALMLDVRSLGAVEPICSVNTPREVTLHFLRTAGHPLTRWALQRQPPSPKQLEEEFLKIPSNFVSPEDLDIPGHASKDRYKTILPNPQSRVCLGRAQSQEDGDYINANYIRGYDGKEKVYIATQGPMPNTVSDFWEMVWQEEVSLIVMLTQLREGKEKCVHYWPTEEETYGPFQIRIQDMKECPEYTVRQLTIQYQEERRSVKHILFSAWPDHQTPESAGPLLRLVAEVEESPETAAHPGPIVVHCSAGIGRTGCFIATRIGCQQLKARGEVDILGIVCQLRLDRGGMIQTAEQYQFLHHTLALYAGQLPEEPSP

[16] = target: T2, Tyrosine-protein phosphatase non-receptor type 7; type: functional
[17] = target: Glyceraldehyde-3-phosphate dehydrogenase (Homo sapiens, UniProt P04406)
[18] = target: Dual specificity protein phosphatase 3 (Homo sapiens, UniProt P51452); test: SAR VHR1 Fluorescent Assay for In Vitro dose response studies. [Related pubchem assays (depositor defined):AID1654, AID1661, AID1878, AID1992, AID2004, AID2070, AID2085]; type: functional
[19] = target: T3, Induced myeloid leukemia cell differentiation protein Mcl-1 (Homo sapiens, UniProt Q07820); test: blockers of MCL1 binding to BIM peptide – biochemical, fluorescence polarization, BIM-BH3 peptide, 1536-well, dose response (AID 2217)
[20] = target: T4, Dual specificity protein phosphatase 6 (Rattus norvegicus, UniProt Q64346)
T4 sequence (Q64346 whole entry): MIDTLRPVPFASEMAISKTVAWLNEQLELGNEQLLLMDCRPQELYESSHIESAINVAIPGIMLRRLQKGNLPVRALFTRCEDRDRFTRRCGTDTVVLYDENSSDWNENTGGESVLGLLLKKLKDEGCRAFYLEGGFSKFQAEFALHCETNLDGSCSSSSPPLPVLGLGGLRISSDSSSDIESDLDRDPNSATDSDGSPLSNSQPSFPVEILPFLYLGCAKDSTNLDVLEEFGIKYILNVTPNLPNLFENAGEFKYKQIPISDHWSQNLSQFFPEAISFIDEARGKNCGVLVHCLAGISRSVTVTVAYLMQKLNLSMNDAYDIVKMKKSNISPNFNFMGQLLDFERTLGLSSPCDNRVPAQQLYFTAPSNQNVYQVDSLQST

[21] = target: T3, Induced myeloid leukemia cell differentiation protein Mcl-1; type: functional
[22] = target: T1, SUMO-activating enzyme; test: blockers of SAE1/SAE2–UBC9 SUMO transfer – biochemical, HTRF, uHTS, primary screen (AID 2006); type: protein-complex assay
[23] = target: Bcl-2-like protein 1 (Homo sapiens, UniProt Q07817); test: blockers of BCLXL peptide binding – biochemical, fluorescence polarization, 1536-well, selectivity assay for MCL1 inhibitor project, dose response (AID 2218)
[24] = target: T4, Dual specificity protein phosphatase 6; type: functional
[25] = target: T5, Bcl-2-like protein 10 (Homo sapiens, UniProt Q9HD36); test: Bcl-B/TR3 peptide binding disruption – biochemical, fluorescence polarization, FITC-TR3 peptide, selectivity assay for Bfl-1 inhibitor project, primary screen (AID 748);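 also: fluorescence polarization from a fluorescein-labelled TR3 peptide binding purified Bcl-B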
T5 sequence (Q9HD36 whole entry): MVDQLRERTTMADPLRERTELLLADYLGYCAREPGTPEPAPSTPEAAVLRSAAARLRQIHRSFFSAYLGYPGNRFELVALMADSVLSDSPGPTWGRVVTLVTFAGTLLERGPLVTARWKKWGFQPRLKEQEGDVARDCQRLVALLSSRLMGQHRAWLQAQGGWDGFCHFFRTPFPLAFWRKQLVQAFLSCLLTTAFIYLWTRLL

[26] = target: Genome polyprotein (dengue virus type 2, UniProt P29990); test: flavivirus cap methylation enzyme inhibition – biochemical, confirmation dose response, primary screen (AID 588689); type: functional
[27] = target: Phospholipase D1 (Homo sapiens, UniProt Q13393); test: PLD1 Cellular Concentration Response Study.; type: functional
[28] = target: Phospholipase D2 (Homo sapiens, UniProt O14939); test: PLD2 Cellular Concentration Response Study.; type: functional
[29] = system: BJ; test: growth inhibition of engineered Ras-driven BJ cells – cell-based, alamar blue fluorescence, cherrypicked samples, dose response (AID 2631); type: functional; details: Homo sapiens;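 also: confirmatory dose-response assay in RAS-dependent BJ fibroblasts engineered with TERT, LT and ST, with cytotoxicity read by fluorescence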
[30] = system: BJ; test: cells; type: functional, cell-based; details: Homo sapiens
[31] = HEK-293T viability loss after treatment – luminescence, T-cell screen hits, cytotoxicity control for TCR NF-kB inhibitor project, dose response (AID 489026); type: functional, cell-based;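 also: cells exposed to compound about 14 hours before the viability readout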
[32] = DRD fibroblast viability loss – cell-based, non-viral oncogenic, luminescence, dose response (AID 1934); type: functional; details: Homo sapiens
[33] = system: BJ; test: BJ-TERT fibroblast viability loss – cell-based, RAS-independent, luminescence, dose response (AID 1933); type: functional; details: Homo sapiens
[34] = Luminescence-based dose response cell-based high throughput screening assay for cytotoxic compounds using the IEC-6 intestinal epithelial cell line. [Related pubchem assays: 1858 (Summary AID.), 1825 (Counterscreen.), 1907 (Confirmation screen.)]; type: functional
[35] = target: Paired box protein Pax-8 (Homo sapiens, UniProt Q06710); test: PAX8 transcriptional activity inhibition in RMG-I – RMG-I cells, luciferase, cherry-pick, dose response (AID 687027); type: functional, cell-based;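 also: luciferase reporter driven by Pax8 target thyroperoxidase promoter measured by SteadyGlo luminescence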
[36] = target: Aryl hydrocarbon receptor (Homo sapiens, UniProt P35869); test: Luminescence-based cell-based high throughput dose response assay for activators of the Aryl Hydrocarbon Receptor (AHR). [Related pubchem assays: 2796 (Primary screen (AHR activators in singlicate)), 2845 (Confirmation screen (AHR activators in triplicate)), 434939 (Counterscreen (PXR activators in triplicate)), 2804 (Summary (AHR activators))]; type: ADME
Sequence of Aryl hydrocarbon receptor (P35869 whole entry): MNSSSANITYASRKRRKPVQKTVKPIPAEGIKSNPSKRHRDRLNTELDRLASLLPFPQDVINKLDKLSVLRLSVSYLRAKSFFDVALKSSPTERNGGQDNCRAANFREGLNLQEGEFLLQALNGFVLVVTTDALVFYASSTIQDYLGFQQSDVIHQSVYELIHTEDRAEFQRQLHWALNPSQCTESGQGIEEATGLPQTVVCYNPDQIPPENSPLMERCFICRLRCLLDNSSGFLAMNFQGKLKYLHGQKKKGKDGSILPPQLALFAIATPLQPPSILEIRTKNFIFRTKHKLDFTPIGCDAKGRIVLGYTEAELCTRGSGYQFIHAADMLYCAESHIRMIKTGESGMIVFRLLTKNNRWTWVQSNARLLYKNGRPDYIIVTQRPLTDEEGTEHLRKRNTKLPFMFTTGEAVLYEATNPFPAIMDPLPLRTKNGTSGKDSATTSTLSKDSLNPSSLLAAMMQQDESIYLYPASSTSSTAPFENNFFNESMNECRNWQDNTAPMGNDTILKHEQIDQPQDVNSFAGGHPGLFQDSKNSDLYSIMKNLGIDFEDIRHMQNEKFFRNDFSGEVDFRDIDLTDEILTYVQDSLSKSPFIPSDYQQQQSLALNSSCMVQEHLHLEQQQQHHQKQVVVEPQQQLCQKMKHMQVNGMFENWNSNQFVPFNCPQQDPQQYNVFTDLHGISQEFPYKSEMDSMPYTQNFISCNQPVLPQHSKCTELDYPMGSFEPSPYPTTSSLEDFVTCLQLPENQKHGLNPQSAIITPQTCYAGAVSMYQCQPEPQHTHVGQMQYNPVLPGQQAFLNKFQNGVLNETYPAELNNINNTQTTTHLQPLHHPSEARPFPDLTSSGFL

T3 sequence (Q07820 whole entry): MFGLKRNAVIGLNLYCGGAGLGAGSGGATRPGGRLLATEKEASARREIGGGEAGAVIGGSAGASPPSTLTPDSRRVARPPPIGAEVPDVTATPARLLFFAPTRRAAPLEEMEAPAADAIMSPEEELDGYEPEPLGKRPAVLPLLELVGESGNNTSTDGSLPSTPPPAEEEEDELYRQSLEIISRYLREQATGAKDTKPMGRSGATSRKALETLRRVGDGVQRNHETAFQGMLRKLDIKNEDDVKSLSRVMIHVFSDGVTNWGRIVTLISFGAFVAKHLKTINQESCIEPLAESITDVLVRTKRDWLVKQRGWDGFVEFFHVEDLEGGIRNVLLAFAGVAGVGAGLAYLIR
T1 sequence (Q9UBE0 whole entry): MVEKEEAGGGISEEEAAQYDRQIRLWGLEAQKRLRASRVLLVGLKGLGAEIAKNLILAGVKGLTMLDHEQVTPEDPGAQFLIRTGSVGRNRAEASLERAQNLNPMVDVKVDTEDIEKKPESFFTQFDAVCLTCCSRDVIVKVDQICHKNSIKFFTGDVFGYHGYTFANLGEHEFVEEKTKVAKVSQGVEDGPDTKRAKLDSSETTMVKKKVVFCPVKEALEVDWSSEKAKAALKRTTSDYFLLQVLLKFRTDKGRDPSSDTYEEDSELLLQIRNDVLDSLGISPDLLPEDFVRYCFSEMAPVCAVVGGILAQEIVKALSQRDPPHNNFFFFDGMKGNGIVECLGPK
T1 sequence (Q9UBT2 whole entry): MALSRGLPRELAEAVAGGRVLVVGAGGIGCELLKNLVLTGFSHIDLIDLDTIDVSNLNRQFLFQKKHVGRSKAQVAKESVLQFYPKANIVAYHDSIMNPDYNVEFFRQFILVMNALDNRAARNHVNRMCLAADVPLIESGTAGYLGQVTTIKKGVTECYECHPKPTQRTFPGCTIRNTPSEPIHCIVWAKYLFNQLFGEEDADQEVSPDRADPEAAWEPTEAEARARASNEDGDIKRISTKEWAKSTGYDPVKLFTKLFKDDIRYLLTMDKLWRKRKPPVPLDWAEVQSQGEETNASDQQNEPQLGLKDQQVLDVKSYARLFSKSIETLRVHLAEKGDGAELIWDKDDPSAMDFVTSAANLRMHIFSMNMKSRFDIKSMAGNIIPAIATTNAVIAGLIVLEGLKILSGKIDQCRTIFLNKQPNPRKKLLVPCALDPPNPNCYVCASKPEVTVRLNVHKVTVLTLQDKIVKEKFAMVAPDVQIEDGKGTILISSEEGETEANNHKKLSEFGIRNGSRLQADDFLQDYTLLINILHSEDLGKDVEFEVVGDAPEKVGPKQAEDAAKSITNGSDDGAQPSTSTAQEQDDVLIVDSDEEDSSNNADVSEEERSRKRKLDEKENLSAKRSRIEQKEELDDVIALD
Sequence of Dual specificity protein phosphatase 3 (P51452 whole entry): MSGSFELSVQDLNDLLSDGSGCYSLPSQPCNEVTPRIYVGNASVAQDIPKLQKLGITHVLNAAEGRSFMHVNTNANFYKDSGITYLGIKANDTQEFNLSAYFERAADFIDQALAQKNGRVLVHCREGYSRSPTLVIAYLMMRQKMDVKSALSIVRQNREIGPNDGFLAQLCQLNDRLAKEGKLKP
Sequence of Bcl-2-like protein 1 (Q07817 whole entry): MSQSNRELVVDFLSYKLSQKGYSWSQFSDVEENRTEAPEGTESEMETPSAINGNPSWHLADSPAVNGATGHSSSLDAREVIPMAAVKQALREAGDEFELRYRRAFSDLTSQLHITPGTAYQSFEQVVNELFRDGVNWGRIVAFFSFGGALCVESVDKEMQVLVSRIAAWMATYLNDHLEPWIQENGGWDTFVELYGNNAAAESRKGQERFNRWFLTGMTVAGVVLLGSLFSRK
Sequence of Phospholipase D2 (O14939 whole entry): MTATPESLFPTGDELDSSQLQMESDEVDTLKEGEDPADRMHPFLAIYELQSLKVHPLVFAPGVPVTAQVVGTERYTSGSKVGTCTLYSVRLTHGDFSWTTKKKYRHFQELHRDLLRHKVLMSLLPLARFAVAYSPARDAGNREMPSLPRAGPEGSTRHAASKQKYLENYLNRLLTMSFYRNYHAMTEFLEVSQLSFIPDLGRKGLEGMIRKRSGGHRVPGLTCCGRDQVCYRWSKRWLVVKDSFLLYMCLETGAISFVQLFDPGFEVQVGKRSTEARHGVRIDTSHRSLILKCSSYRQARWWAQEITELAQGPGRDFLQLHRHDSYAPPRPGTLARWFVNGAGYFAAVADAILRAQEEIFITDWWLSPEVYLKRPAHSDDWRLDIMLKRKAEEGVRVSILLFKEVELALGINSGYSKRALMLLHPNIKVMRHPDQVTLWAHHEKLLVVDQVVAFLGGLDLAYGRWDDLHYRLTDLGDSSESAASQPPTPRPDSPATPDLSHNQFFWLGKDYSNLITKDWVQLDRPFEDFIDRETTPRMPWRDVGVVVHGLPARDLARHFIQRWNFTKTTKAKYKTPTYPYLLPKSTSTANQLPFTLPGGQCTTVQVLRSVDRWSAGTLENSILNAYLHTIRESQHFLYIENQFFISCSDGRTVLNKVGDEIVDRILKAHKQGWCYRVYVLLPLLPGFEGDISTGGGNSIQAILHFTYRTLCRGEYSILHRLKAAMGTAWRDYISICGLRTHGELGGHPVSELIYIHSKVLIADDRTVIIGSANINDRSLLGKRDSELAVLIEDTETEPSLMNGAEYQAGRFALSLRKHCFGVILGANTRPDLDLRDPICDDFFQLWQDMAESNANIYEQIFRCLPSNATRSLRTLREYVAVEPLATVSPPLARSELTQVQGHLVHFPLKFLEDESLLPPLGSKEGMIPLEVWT
Sequence of Glyceraldehyde-3-phosphate dehydrogenase (P04406 whole entry): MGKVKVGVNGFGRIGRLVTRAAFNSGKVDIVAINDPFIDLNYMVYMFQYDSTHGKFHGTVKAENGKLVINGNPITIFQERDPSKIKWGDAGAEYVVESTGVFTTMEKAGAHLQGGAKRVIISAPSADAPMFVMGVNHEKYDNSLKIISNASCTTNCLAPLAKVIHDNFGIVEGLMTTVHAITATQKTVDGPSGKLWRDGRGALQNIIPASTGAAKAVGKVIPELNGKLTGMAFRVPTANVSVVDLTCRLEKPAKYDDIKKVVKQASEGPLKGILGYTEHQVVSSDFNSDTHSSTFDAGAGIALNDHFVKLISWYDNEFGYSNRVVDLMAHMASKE
Sequence of Mitogen-activated protein kinase 10 (P53779 whole entry): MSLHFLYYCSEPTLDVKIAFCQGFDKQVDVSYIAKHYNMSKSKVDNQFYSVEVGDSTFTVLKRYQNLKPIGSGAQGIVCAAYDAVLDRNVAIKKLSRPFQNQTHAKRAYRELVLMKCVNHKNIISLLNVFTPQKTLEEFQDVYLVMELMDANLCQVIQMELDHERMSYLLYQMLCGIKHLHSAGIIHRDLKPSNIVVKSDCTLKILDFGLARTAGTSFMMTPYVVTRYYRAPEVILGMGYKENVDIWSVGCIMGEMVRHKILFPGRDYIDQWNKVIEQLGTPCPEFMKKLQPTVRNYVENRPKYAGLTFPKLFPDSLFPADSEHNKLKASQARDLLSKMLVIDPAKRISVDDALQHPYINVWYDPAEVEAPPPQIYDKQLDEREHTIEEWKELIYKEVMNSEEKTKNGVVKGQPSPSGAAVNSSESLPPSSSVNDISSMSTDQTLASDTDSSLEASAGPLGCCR
Sequence of Estrogen receptor beta (Q92731 whole entry): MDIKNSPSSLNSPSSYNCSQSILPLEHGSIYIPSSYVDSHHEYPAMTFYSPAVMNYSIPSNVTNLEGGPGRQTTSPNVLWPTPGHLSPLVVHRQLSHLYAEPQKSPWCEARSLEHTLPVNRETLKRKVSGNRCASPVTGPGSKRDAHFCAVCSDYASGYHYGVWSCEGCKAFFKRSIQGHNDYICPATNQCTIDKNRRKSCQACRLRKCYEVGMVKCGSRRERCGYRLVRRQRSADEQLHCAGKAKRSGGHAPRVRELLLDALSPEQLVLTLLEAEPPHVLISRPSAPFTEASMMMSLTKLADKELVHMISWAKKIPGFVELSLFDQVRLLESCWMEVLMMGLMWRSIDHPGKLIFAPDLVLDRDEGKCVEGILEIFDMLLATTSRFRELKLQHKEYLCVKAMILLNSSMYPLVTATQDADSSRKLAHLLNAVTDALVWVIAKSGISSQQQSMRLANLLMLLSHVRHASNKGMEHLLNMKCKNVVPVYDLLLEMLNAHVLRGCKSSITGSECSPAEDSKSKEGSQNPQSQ

Structure (SMILES): O=C(c1ccccc1F)N1CC(=O)N2[C@H](CO)[C@H](c3ccc(-c4cccnc4)cc3)[C@H]2C1
- AC50 [1]: 129 nM (active)
- AC50 [2]: 427 nM (active)
- AC50 [3]: < 300 nM (active)
- AC50 [4]: 197 nM (active)
- AC50 [5]: 148 nM (active)

Structure (SMILES): C/C(NC1CCCC1)=C(/C#N)C(N)=O
- IC50 [6]: 33.3 µM (not active)

Structure (SMILES): COc1cccc(NC(=O)C(=O)N/N=C(\C)CC(=O)Nc2ccc(NC(C)=O)cc2)c1
- EC50 [7]: 9.31 µM (active)
- EC50 [8]: > 12 µM (not active)
- EC50 [9]: < 100 nM (active)
- EC50 [10]: 25.6 µM (active)
- EC50 [11]: > 12 µM (not active)
- EC50 [12]: 1.25 µM (active)

Structure (SMILES): CSc1nnc(-c2ccco2)c(-c2ccco2)n1
- IC50 [13]: > 50 µM (not active)
- IC50 [14]: 2.91 µM (active)
- IC50 [15]: 1.04 µM (active)
- IC50 [16]: 41.5 µM (active)
- IC50 [17]: 99.1 µM (active)
- IC50 [18]: 29.5 µM (active)
- IC50 [19]: 13.2 µM (not active)
- IC50 [20]: 80.4 µM (active)
- IC50 [21]: 8.02 µM (active)
- IC50 [22]: 15.2 µM (active)
- IC50 [23]: > 109 µM (not active)
- IC50 [24]: 99.7 µM (active)
- IC50 [25]: 19.4 µM (active)
- IC50 [26]: 86.8 µM (active)

Structure (SMILES): O=C(NCCN1CCC2(CC1)C(=O)NCN2Cc1ccccc1Br)c1ccc2ccccc2c1
- IC50 [27]: 1.68 µM (active)
- IC50 [28]: 160 nM (active)

Structure (SMILES): COc1ccc(/C=N/NC(=O)c2[nH]c3ccc(Br)cc3c2-c2ccccc2)cc1
- EC50 [29]: 88.6 nM (active)
- EC50 [30]: 34.8 µM (inconclusive)
- IC50 [31]: > 80 µM (inactive)
- EC50 [32]: 361 nM (active)
- EC50 [33]: < 120 nM (inconclusive)
- IC50 [34]: 296 nM (active)
- AC50 [35]: < 500 nM (active)

Structure (SMILES): CCC(=O)Nc1cc(OC)c(NC(=O)c2ccccc2)cc1OC
- EC50 [36]: 1.85 µM (active)
